Assays:
[1] = target: T1, Amine oxidase [flavin-containing] B (Homo sapiens, UniProt P27338); assay: Inhibition of recombinant human MAOB using kynuramine as substrate by fluorescence based assay
T1 sequence (P27338 whole entry): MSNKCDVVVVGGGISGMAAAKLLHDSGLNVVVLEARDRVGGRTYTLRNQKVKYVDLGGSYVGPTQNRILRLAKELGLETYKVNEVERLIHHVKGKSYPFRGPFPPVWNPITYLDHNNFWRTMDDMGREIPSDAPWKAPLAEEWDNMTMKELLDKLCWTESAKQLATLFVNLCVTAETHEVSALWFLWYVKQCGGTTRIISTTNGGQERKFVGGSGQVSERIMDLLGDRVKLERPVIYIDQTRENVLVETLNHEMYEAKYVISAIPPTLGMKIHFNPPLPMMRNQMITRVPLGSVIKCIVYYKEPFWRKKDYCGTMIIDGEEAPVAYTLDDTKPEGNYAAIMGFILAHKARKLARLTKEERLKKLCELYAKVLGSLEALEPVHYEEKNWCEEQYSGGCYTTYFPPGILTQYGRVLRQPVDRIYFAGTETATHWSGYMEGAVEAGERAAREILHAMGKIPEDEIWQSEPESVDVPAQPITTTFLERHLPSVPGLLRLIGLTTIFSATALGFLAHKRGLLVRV

[2] = target: T2, Catechol O-methyltransferase (Rattus norvegicus, UniProt P22734); assay: Inhibition of rat liver COMT using esculetin as substrate by fluorescence based spectrophotometry
T2 sequence (P22734 whole entry): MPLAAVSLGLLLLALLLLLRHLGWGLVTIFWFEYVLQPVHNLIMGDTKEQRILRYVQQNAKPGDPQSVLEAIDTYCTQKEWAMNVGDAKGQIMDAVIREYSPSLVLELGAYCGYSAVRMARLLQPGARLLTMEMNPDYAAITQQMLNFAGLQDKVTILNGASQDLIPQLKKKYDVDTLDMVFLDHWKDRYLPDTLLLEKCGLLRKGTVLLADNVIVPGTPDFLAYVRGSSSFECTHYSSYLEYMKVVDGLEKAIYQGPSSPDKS

[3] = target: T3, Amine oxidase [flavin-containing] A (Homo sapiens, UniProt P21397); assay: Inhibition of recombinant human MAOA using kynuramine as substrate by fluorescence based assay
T3 sequence (P21397 whole entry): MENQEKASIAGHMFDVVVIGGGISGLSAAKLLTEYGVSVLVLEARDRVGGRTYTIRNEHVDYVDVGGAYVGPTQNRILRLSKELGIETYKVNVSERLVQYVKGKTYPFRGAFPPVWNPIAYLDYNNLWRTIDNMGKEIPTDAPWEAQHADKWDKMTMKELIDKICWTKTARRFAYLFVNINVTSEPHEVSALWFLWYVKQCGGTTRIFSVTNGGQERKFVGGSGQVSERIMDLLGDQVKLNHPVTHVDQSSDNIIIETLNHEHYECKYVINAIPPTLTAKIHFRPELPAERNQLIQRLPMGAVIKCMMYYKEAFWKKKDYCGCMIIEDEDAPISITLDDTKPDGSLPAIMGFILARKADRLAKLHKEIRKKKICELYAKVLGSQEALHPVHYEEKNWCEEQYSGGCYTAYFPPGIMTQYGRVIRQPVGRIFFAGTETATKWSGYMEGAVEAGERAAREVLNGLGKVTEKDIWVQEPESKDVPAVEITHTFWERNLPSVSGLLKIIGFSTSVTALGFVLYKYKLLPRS

[4] = target: T4, Catechol O-methyltransferase (Rattus norvegicus) (UniProt P22734); assay: Potency index, ratio of IC50 of 1-(3,4-dihydroxy-5-nitro-phenyl)-3-(3-methoxyphenyl)prop-2-en-1-one to IC50 of compound for inhibition of rat liver COMT using esculetin as substrate by fluorescence based spectrophotometry
T4 sequence (whole entry): T2 sequence (P22734 whole entry)

[5] = target: T3, Amine oxidase [flavin-containing] A; assay: Inhibition of recombinant human MAOA expressed in insect cells measured after 20 mins by fluorescence spectrophotometry
[6] = target: T5, Catechol O-methyltransferase (Homo sapiens, UniProt P21964); assay: Inhibition of COMT (unknown origin)
T5 sequence (P21964 whole entry): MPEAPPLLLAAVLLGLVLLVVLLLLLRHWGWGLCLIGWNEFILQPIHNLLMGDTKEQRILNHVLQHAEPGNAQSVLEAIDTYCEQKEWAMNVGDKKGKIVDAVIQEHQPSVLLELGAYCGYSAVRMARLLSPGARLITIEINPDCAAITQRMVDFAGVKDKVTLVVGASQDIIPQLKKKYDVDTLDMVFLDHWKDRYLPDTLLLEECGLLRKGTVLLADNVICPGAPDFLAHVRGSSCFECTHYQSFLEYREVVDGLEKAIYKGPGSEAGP

[7] = target: T1, Amine oxidase [flavin-containing] B; assay: Inhibition of recombinant human MAOB expressed in insect cells measured after 20 mins by fluorescence spectrophotometry

| SMILES | IC50 [1] | IC50 [2] | IC50 [3] | Ratio IC50 [4] | IC50 [5] | IC50 [6] | IC50 [7] |
| --- | --- | --- | --- | --- | --- | --- | --- |
| CC(=O)N1N=C(c2cc(O)c(O)c([N+](=O)[O-])c2)CC1c1cccc(O)c1 (centres undefined) | 85.2 µM | 0.075 µM | 87 µM | – | – | – | – |
| CC(=O)N1N=C(c2cc(O)c(O)c([N+](=O)[O-])c2)CC1c1ccco1 (centres undefined) | 77.4 µM | 0.18 µM | 98 µM | – | – | – | – |
| CC(=O)N1N=C(c2cc(O)c(O)c([N+](=O)[O-])c2)CC1c1nccs1 (centres undefined) | 68.2 µM | 0.16 µM | 84.6 µM | – | – | – | – |
| CC(=O)N1N=C(c2cc(O)c(O)c([N+](=O)[O-])c2)CC1c1ccc(C#N)cc1 (centres undefined) | 83.2 µM | 0.048 µM | 76.6 µM | 1.46 | – | – | – |
| O=C(/C=C/c1ccoc1)c1cc(O)c(O)c([N+](=O)[O-])c1 | 71.4 µM | 0.29 µM | 52.9 µM | – | – | – | – |
| CC(=O)N1N=C(c2cc(O)c(O)c([N+](=O)[O-])c2)CC1c1cccs1 (centres undefined) | 69.2 µM | 0.21 µM | 86.3 µM | – | – | – | – |
| COc1cccc(/C=C/C(=O)c2cc(O)c(O)c([N+](=O)[O-])c2)c1 | – | – | – | – | 67.6 µM | 0.07 µM | – |
| O=C(/C=C/c1ccco1)c1cc(O)c(O)c([N+](=O)[O-])c1 | 68.2 µM | 0.23 µM | 60.5 µM | – | – | – | – |
| O=C(/C=C/c1cccc(Br)c1)c1cc(O)c(O)c([N+](=O)[O-])c1 | – | – | – | – | 76.1 µM | 0.29 µM | 13.9 µM |
| CC(=O)N1N=C(c2cc(O)c(O)c([N+](=O)[O-])c2)CC1c1ccoc1 (centres undefined) | 126 µM | 0.18 µM | 90.9 µM | – | – | – | – |

The remaining compounds from weak to strong by IC50 [1], led by results:

| IC50 [1] | IC50 [2] | IC50 [3] | Ratio IC50 [4] | IC50 [5] | IC50 [6] | IC50 [7] | SMILES |
| --- | --- | --- | --- | --- | --- | --- | --- |
| 66.2 µM | 0.29 µM | 51.5 µM | – | – | – | – | Cn1cc(/C=C/C(=O)c2cc(O)c(O)c([N+](=O)[O-])c2)cn1 |
| 62.9 µM | 0.19 µM | 49.9 µM | – | – | – | – | O=C(/C=C/c1cccs1)c1cc(O)c(O)c([N+](=O)[O-])c1 |
| 60.6 µM | 0.24 µM | 58.9 µM | – | – | – | – | N#Cc1cccc(/C=C/C(=O)c2cc(O)c(O)c([N+](=O)[O-])c2)c1 |
| 59.2 µM | 0.24 µM | 69.6 µM | – | – | – | – | O=C(/C=C/c1nccs1)c1cc(O)c(O)c([N+](=O)[O-])c1 |
| 56.6 µM | 0.18 µM | 45.3 µM | – | – | – | – | N#Cc1ccc(/C=C/C(=O)c2cc(O)c(O)c([N+](=O)[O-])c2)cc1 |
| 55.8 µM | 0.14 µM | 43.9 µM | – | – | – | – | O=C(/C=C/c1cccc(O)c1)c1cc(O)c(O)c([N+](=O)[O-])c1 |
| 55.4 µM | 0.079 µM | 70.6 µM | – | – | – | – | CC(=O)N1N=C(c2cc(O)c(O)c([N+](=O)[O-])c2)CC1c1cccc(C#N)c1 (centres undefined) |
| 42.1 µM | 0.23 µM | 41.4 µM | – | – | – | – | O=C(/C=C/c1ccsc1)c1cc(O)c(O)c([N+](=O)[O-])c1 |

Source: ChEMBL document CHEMBL4619744, “Evaluation of nitrocatechol chalcone and pyrazoline derivatives as inhibitors of catechol-O-methyltransferase and monoamine oxidase” (Bioorg Med Chem Lett, 2020)
